{"source": "patent US12461092B2", "about": "“Screening method for APP cleavage activity-controlling substances of ADAMTS4” (SHIMADZU CORPORATION, priority 2019, dated 2025)", "key": {"[1]": {"test_system": "adenocarcinomic human alveolar basal epithelial cell A549", "experiment": "Aβ-related peptide production in culture supernatant of A549 cells by IP-MS (Example 4)", "assay_type": "cell-based", "details": "96 hours, DMSO control", "experimental": "(§1) An Aβ-related peptide contained in the culture supernatant was measured by IP-MS corresponding to a combination of immunoprecipitation (IP) and mass spectrometry (MS). In IP, antibody immobilized beads obtained by covalent binding of anti-Aβ antibody clone 6E10 (BioLegend) to Dynabeads Epoxy (Thermo Fisher Scientific) were used.\n(§2) The cryopreserved culture supernatant was thawed, and 250 μL of a reaction liquid containing internal standard peptides [800 mM GlcNAc, 0.2/a (w/v) NTM, 0.2% (w/v) DDM, 300 mM NaCl, and 100 mM Tris-HCl buffer (pH 7.4)] was mixed with 250 μL of the culture supernatant. The thus obtained mixture was mixed with the antibody immobilized beads, followed by an antigen antibody reaction at 4° C. for 1 hour. As the internal standard peptides, 22 μM stable isotope labeled Aβ1-38 and 100 μM stable isotope labeled A31-15 were used.\n(§3) After the antigen antibody reaction, the antibody immobilized beads were washed with a first washing buffer [washed once with 100 μL of the first washing buffer (0.1% DDM, 0.1% NTM, 50 mM Tris-HCl (pH 7.4) and 150 mM NaCl), and then once with 50 μL of a 50 mM ammonium acetate buffer]. Thereafter, the Aβ-related peptide captured by the antibody immobilized beads was eluted with a glycine buffer containing DDM (50 mM glycine buffer containing 0.1% of DDM, pH 2.8). To the thus obtained eluate, Tris buffer containing DDM [800 mM GlcNAc, 0.2% (w/v) DDM, 300 mM NaCl, and 300 mM Tris-HCl buffer (pH 7.4)] was added to restore the pH to neutral (pH 7.4). Thereafter, the neutral eluate was contacted with the antibody immobilized beads at 4° C. for 1 hour again to cause the antigen antibody reaction of the Aβ-related peptide. The resultant was washed with a second washing buffer [washed twice with 100 μL of the second washing buffer (0.1% DDM, 150 mM Tris-HCl (pH 7.4), and 150 mM NaCl), and once with 50 μL of a 50 mM ammonium acetate buffer], and then, the Aβ-related peptide captured by the antibody immobilized beads was eluted with an eluent (5 mM HCl, 0.1 mM methionine, and 70% (v/v) acetonitrile). In this manner, each eluate containing the Aβ-related peptide was obtained through two-stage IP operation.\n(§4) As a matrix for linear TOF, α-cyano-4-hydroxycinnamic acid (CHCA) was used. A matrix solution was prepared by dissolving 1 mg of CHCA in 1 mL of 70% (v/v) acetonitrile. As a matrix additive, 0.4% (w/v) methylenediphosphonic acid (MDPNA) was used. A 1 mg/mL CHCA solution and 0.4% (w/v) MDPNA were mixed in equivalent amounts to obtain a matrix/matrix additive solution [0.5 mg/mL CHCA/0.2% (w/v) MDPNA].\n(§5) Precedently, 0.5 μL of the matrix/matrix additive solution was added in a dropwise manner into respective wells of μFocus MALDI Plate™ 900 μm (Hudson Surface Technology, Inc., Fort Lee, NJ), and then dried.\n(§6) Each eluate resulting from IP was added in a dropwise manner into 4 wells of the μFocus MALDI Plate™ 900 μm, and then dried.\n(§7) Mass spectral data was obtained by linear TOF in the positive ion mode using AXIMA Performance (Shimadzu/KRATOS, Manchester, UK). An m/z value of linear TOF was indicated as an average mass of peaks. The m/z value was calibrated using, as external standards, human angiotensin II, human ACTH fragment 18-39, bovine insulin oxidized beta-chain, and bovine insulin.\n(§8) In the mass spectrum, signal intensity of each Aβ-related peptide was normalized using an internal standard peptide. Thereafter, an average of four normalized intensities obtained from one sample was obtained, which was evaluated as a production amount of the Aβ-related peptide. When there were two or more data not reaching a lower detection limit (S/N<3), it was regarded as undetectable.\n(§9) A metalloprotease inhibitor, 25 μM GM6001 (Cosmobio) or 10 μM INCB3619 (NPL 8), was caused to act on, or DMSO was added as a control to human neuroblastoma BE(2)-C and adenocarcinomic human alveolar basal epithelial cell A549, and the resultant cells were incubated for 96 hours. […]"}, "[2]": {"test_system": "A549-wild type (wt) cells", "experiment": "Aβ-related peptide production in culture supernatant of A549-wt cells by IP-MS (Example 1)", "assay_type": "cell-based, human", "details": "25 μM, 96 hours, compared with DMSO control", "method": "After the antigen antibody reaction, the antibody immobilized beads were washed with a first washing buffer [washed once with 100 μL of the first washing buffer (0.1% DDM, 0.1% NTM, 50 mM Tris-HCl (pH 7.4) and 150 mM NaCl), and then once with 50 μL of a 50 mM ammonium acetate buffer]. Thereafter, the Aβ-related peptide captured by the antibody immobilized beads was eluted with a glycine buffer containing DDM (50 mM glycine buffer containing 0.1% of DDM, pH 2.8). To the thus obtained eluate, Tris buffer containing DDM [800 mM GlcNAc, 0.2% (w/v) DDM, 300 mM NaCl, and 300 mM Tris-HCl buffer (pH 7.4)] was added to restore the pH to neutral (pH 7.4). Thereafter, the neutral eluate was contacted with the antibody immobilized beads at 4° C. for 1 hour again to cause the antigen antibody reaction of the Aβ-related peptide. The resultant was washed with a second washing buffer [washed twice with 100 μL of the second washing buffer (0.1% DDM, 150 mM Tris-HCl (pH 7.4), and 150 mM NaCl), and once with 50 μL of a 50 mM ammonium acetate buffer], and then, the Aβ-related peptide captured by the antibody immobilized beads was eluted with an eluent (5 mM HCl, 0.1 mM methionine, and 70% (v/v) acetonitrile). In this manner, each eluate containing the Aβ-related peptide was obtained through two-stage IP operation. […]"}, "[3]": {"test_system": "A549-ADAMTS4 KO cells", "experiment": "Aβ-related peptide production in culture supernatant of A549-ADAMTS4 KO cells by IP-MS (Example 1)", "assay_type": "cell-based, human", "details": "25 μM, 96 hours, compared with DMSO control", "experimental": "In A549 cells, an influence on production of APP669-x caused by ADAMTS4 knockout using CRISPR/Cas9 (clustered regularly interspaced short palindromic repeats/CRISPR associated proteins) and guide RNA (gRNA), and a treatment with GM6001, a metalloprotease inhibitor, was evaluated. A549 cell is human adenocarcinomic alveolar basal epithelial cell. The gRNA was designed using CRISPR Search (https://www.sanger.ac.uk/htgt/wge/find_crisprs).\nVectors in which cDNAs respectively encoding paired gRNAs targeting ADAMTS4 were inserted respectively into vector px335 (Addgene 042335) expressing SpCas9 nickase and gRNA and retrovirus-derived vector pBabe Puro U6 BbsI (donated by Professor Dario Alessi, Dundee University) were constructed.\nThese vectors were transfected, and the resultant transfectants were subjected to selection with puromycin for monocloning. A genome was extracted from each monoclonal cell, and a genome fragment including a gene region targeted by gRNA was amplified by PCR to be subjected to sanger sequencing. Primers used for amplifying the genome fragment were as follows: […]\nAs a result of analysis of a plurality of monoclonal cells, it was presumed that ADAMTS4 gene region of A549 cell has three alleles. Then, a monoclonal cell respectively having deletion of 16 bp, 29 bp and 20 bp in the gene region of ADAMTS4 gene as shown in FIG. 2 was obtained. Since none of these is a multiple of 3, it is presumed that normal ADAMTS4 protein is not expressed. Therefore, it was regarded that this cell is A549 cell having endogenous ADAMTS4 knockout (KO) (A549-ADAMTS4 KO cell).\nA metalloprotease inhibitor, GM6001 (25 μM), or dimethylsulfoxide (DMSO) used as a control was added to each of A549-ADAMTS4 KO cells and A549-wild type (wt) cells, and the resultant cells were incubated for 96 hours. Thereafter, a culture supernatant was collected, and stored at −80° C. until measurement.\nas §1\nas §2, with “used. […]” for “used.”"}, "[4]": {"test_system": "human neuroblastoma BE(2)-C", "experiment": "Aβ-related peptide production in culture supernatant of BE(2)-C cells by IP-MS (Example 4)", "assay_type": "cell-based", "details": "for APP669 cleavage activity (on the N-terminal side): conclusion from BE(2)-C and A549 cells", "experimental": "as §1, §2, §3, §4, §5, §6, §7, §8, §9"}, "[5]": {"test_system": "APP stable HEK cells", "experiment": "Aβ-related peptide production in culture supernatant of APP stable HEK cells by IP-MS (Example 4)", "assay_type": "cell-based, human", "details": "25 μM", "method": "As a matrix for linear TOF, α-cyano-4-hydroxycinnamic acid (CHCA) was used. A matrix solution was prepared by dissolving 1 mg of CHCA in 1 mL of 70% (v/v) acetonitrile. As a matrix additive, 0.4% (w/v) methylenediphosphonic acid (MDPNA) was used. […]\nIn the mass spectrum, signal intensity of each Aβ-related peptide was normalized using an internal standard peptide. Thereafter, an average of four normalized intensities obtained from one sample was obtained, which was evaluated as a production amount of the Aβ-related peptide. […]"}, "[6]": {"details": "BE(2)-C cells, 25 μM, 96 hours, DMSO control"}, "[7]": {"details": "BE(2)-C cells, 10 μM, 96 hours, DMSO control"}}, "data": [{"smiles": "CNC(=O)[C@H](Cc1c[nH]c2ccccc12)NC(=O)[C@@H](CC(=O)NO)CC(C)C", "note": "[GM6001]", "values": [{"measurement": "production amount of APP669-709 (Aβ(3-38))", "setting": "[1]; 25 μM", "value": "decreased"}, {"measurement": "production amount of APP669-711 (Aβ(−3-40))", "setting": "[1]; 25 μM", "value": "decreased"}, {"measurement": "production amount of Aβ1-38", "setting": "[1]; 25 μM", "value": "not decreased"}, {"measurement": "production amount of Aβ1-40", "setting": "[1]; 25 μM", "value": "not decreased"}, {"measurement": "production amount of APP669-709 (Aβ(−3-38))", "setting": "[2]", "value": "tended to be decreased to substantially a half"}, {"measurement": "production amount of APP669-711 (Aβ(−3-40))", "setting": "[2]", "value": "tended to be decreased to substantially a half"}, {"measurement": "production amount of Aβ1-38", "setting": "[2]", "value": "tended to be rather increased"}, {"measurement": "production amount of Aβ1-40", "setting": "[2]", "value": "tended to be rather increased"}, {"measurement": "production amount of APP669-709 (Aβ(−3-38))", "setting": "[3]", "value": "tended to be decreased to substantially a half"}, {"measurement": "production amount of APP669-711 (Aβ(−3-40))", "setting": "[3]", "value": "tended to be decreased to substantially a half"}, {"measurement": "production amount of Aβ1-38", "setting": "[3]", "value": "tended to be rather increased"}, {"measurement": "production amount of Aβ1-40", "setting": "[3]", "value": "tended to be rather increased"}, {"measurement": "production amount of APP669-709 (Aβ(3-38))", "setting": "[4]; [6]", "value": "decreased"}, {"measurement": "production amount of APP669-711 (Aβ(−3-40))", "setting": "[4]; [6]", "value": "decreased"}, {"measurement": "production amount of Aβ1-38", "setting": "[4]; [6]", "value": "not decreased"}, {"measurement": "production amount of Aβ1-40", "setting": "[4]; [6]", "value": "not decreased"}, {"measurement": "APP669 cleavage activity (on the N-terminal side)", "setting": "[4]; 25 μM", "value": "decreases"}, {"measurement": "production amount of APP669-709 (Aβ(3-38))", "setting": "[5]", "value": "decreased"}, {"measurement": "production amount of APP669-711 (Aβ(−3-40))", "setting": "[5]", "value": "decreased"}, {"measurement": "production amount of Aβ1-38", "setting": "[5]", "value": "not decreased"}, {"measurement": "production amount of Aβ1-40", "setting": "[5]", "value": "not decreased"}]}, {"smiles": "COC(=O)N1CC2(CC2)C[C@H](C(=O)NO)[C@H]1C(=O)N1CC=C(c2ccccc2)CC1", "note": "[INCB3619]", "values": [{"measurement": "production amount of APP669-709 (Aβ(3-38))", "setting": "[1]; 10 μM", "value": "not changed"}, {"measurement": "production amount of APP669-711 (Aβ(−3-40))", "setting": "[1]; 10 μM", "value": "not changed"}, {"measurement": "production amount of APP669-709 (Aβ(3-38))", "setting": "[4]; [7]", "value": "rather slightly decreased"}, {"measurement": "production amount of APP669-711 (Aβ(−3-40))", "setting": "[4]; [7]", "value": "rather slightly decreased"}, {"measurement": "APP669 cleavage activity (on the N-terminal side)", "setting": "[4]; 10 μM", "value": "low effect of decreasing"}]}]}
